The values below come from patent publication US8183260B2, “5H-thioeno(3,4-c)pyrrole-4,6-dione derivatives and their use as tumor necrosis factor inhibitors” (Tianjin Hemay Bio-Tech Co., Ltd., priority 2005, dated 2012).

For the assay, the system named is TNFα released by PBMCs. The assay is described as follows: Inhibition of TNFα release from monocytes (PBMC) stimulated by LPS, ELISA. The note with it: Homo sapiens, LPS 0.1 μg/mL, 20 hr incubation; for inhibition at 100 µM: test concentration 100 μM; for inhibition at 100 µM / inhibition at 3 µM: read-out: Degree of inhibition (%); for IC50: concentration giving 50% TNFα inhibition; for inhibition at 3 µM: test concentration 3.0 μM. The format is cell-based. The method, then: Cytokine TNFα released by PBMCs in the peripheral blood after […] (LPS) stimulation in vitro was studied. The followings are experimental protocols for studying cytokine TNFα released by PBMCs, which are inhibited by compounds of the invention.
PBMCs were obtained from blood of at least three volunteers after heparin treatment, using gradient extraction. PBMCs were collected and washed three times with a 1640 medium (10% calf serum, 2 mM L-glutamine, […], 50 μg/mL streptomycin, 50 U/mL penicillin), then placed into wells of a 24-well cell culture plate. The concentration was adjusted to 1×10^6 cells/mL with 1640 culture medium. […] The resultant solution was added to the cell culture medium and the culture plate was placed in a CO2 incubator (5% CO2, 90% humidity) for 1 hour. Then, LPS (Sigma) was added and its concentration was adjusted to 0.1 μg/mL (except for the control).
After a 20 hr incubation period, the content of TNFα in supernatant of the above PBMC culture medium was assayed by ELISA kit (America Genzyme Co), using standard method. The measured value of the control well (not treated with active components), and the measured value of the test wells containing the test compounds was used to calculate the TNFα inhibition rate. The concentration of compounds giving a 50% TNFα inhibition (IC50 value) was calculated using nonlinear regression analysis. Each concentration was determined twice and an average value was calculated.
Background: ELISA stands for enzyme-linked immunosorbent assay.

What is called inhibition is the change of the read-out against control, counted positive when it falls. On to `O=C1CCC(N2C(=O)c3cscc3C2=O)C(=O)N1` (stereo not shown) [Example 10, 5-(2,6-dioxopiperidin-3-yl)-5H-thieno(3,4-c)pyrrole-4,6-dione], for which the inhibition at 100 µM was found to be 32%.
On the same count and under the same terms, as for `CN1C(=O)CCC(N2C(=O)c3cscc3C2=O)C1=O` (stereo not shown) [Example 13, 5-(1-methyl-2,6-dioxopiperidin-3-yl)-5H-thieno(3,4-c)pyrrole-4,6-dione], the figure is 20%; as for `COC(=O)CN1C(=O)CCC(N2C(=O)c3cscc3C2=O)C1=O` (stereo not shown) [Example 15, 5-(1-methoxycarbonylmethyl-2,6-dioxopiperidin-3-yl)-5H-thieno(3,4-c)pyrrole-4,6-dione], 18%; as for `COCCN1C(=O)CCC(N2C(=O)c3cscc3C2=O)C1=O` (stereo not shown) [Example 16, 5-(1-(2-methoxyethyl)-2,6-dioxopiperidin-3-yl)-5H-thieno(3,4-c)pyrrole-4,6-dione], 28%.
For the compound `O=C1CCC(N2C(=O)c3csc([N+](=O)[O-])c3C2=O)C(=O)N1` (stereo not shown) [Example 18, 1-nitro-5-(2,6-dioxopiperidin-3-yl)-5H-thieno(3,4-c)pyrrole-4,6-dione], the inhibition at 100 µM came out at 28%.
For orientation: IC50 means the concentration that inhibits the measured activity by half. Regarding `Nc1scc2c1C(=O)N(C1CCC(=O)NC1=O)C2=O` (stereo not shown) [Example 19, 1-amino-5-(2,6-dioxopiperidin-3-yl)-5H-thieno(3,4-c)pyrrole-4,6-dione], the IC50 was found to be 6 nM and the inhibition at 3 µM worked out at 95%.
On the same counts, the results for `CNc1scc2c1C(=O)N(C1CCC(=O)NC1=O)C2=O` (stereo not shown) [Example 22, 1-methylamino-5-(2,6-dioxopiperidin-3-yl)-5H-thieno(3,4-c)pyrrole-4,6-dione] are 500 nM and 62%.
In the case of `CC(=O)Nc1scc2c1C(=O)N(C1CCC(=O)NC1=O)C2=O` (stereo not shown) [Example 24, 1-acetamido-5-(2,6-dioxopiperidin-3-yl)-5H-thieno(3,4-c)pyrrole-4,6-dione], the inhibition at 3 µM was 48%.
For `CC1(N2C(=O)c3csc(N)c3C2=O)CCC(=O)NC1=O` (stereo not shown) [Example 27, 1-amino-5-(3-methyl-2,6-dioxopiperidin-3-yl)-5H-thieno(3,4-c)pyrrole-4,6-dione], the IC50 worked out at 50 nM and the inhibition at 3 µM stood at 84%.
Consider `CN1C(=O)CCC(N2C(=O)c3csc(N)c3C2=O)C1=O` (stereo not shown) [Example 31, 1-amino-5-(1-methyl-2,6-dioxopiperidin-3-yl)-5H-thieno(3,4-c)pyrrole-4,6-dione], for which the IC50 was determined as 350 nM and the inhibition at 3 µM amounted to 71%.
For the compound `O=C1CCC(N2C(=O)c3ccccc3C2=O)C(=O)N1` (stereo not shown) [Thalidomide, reference compound], the IC50 amounted to 183000 nM and the inhibition at 100 µM came out at 22%.
